Data taken from ChEMBL document CHEMBL2016578, “Synthesis and anticancer activity of 2-benzylidene indanones through inhibiting tubulin polymerization” (Bioorg Med Chem, 2012).

Legend:
Assay type in all cases: organism-based
Details in all cases: in vivo, 168 h
Mus musculus [1] = assay: Toxicity in Swiss albino mouse assessed as change in ALKP activity at 300 mg/kg, po after 7 days (reference value: 83.29 +/- 9.77 U/L ); set-up: dose 300 mg/kg, route oral
Mus musculus [2] = assay: Toxicity in Swiss albino mouse assessed as change in relative liver weight at 5 to 1000 mg/kg, po after 7 days; set-up: dose 5-1000 mg/kg, route oral
Mus musculus [3] = assay: Toxicity in Swiss albino mouse assessed as change in serum SGPT activity at 300 mg/kg, po after 7 days (reference value: 9.3 +/- 0.89 U/L ); set-up: dose 300 mg/kg, route oral
Mus musculus [4] = assay: Toxicity in Swiss albino mouse assessed as change in serum SGPT activity at 1000 mg/kg, po after 7 days (reference value: 20.47 +/- 2.07 U/L ); set-up: dose 1000 mg/kg, route oral
Mus musculus [5] = assay: Toxicity in Swiss albino mouse assessed as change in serum SGPT activity at 1000 mg/kg, po after 7 days (reference value: 9.3 +/- 0.89 U/L ); set-up: dose 1000 mg/kg, route oral
Mus musculus [6] = assay: Toxicity in Swiss albino mouse assessed as change in relative testis weight at 5 to 1000 mg/kg, po after 7 days; set-up: dose 5-1000 mg/kg, route oral
Mus musculus [7] = assay: Toxicity in Swiss albino mouse assessed as serum total cholesterol level at 5 mg/kg, po after 7 days (reference value: 116.07 +/- 8.86 mg/dL ); set-up: dose 5 mg/kg, route oral
Mus musculus [8] = assay: Toxicity in Swiss albino mouse assessed as change in serum SGPT activity at 50 mg/kg, po after 7 days (reference value: 9.3 +/- 0.89 U/L ); set-up: dose 50 mg/kg, route oral
Mus musculus [9] = assay: Toxicity in Swiss albino mouse assessed as serum total cholesterol level at 300 mg/kg, po after 7 days (reference value: 116.07 +/- 8.86 mg/dL ); set-up: dose 300 mg/kg, route oral
Mus musculus [10] = assay: Toxicity in Swiss albino mouse assessed as body weight change at 5 mg/kg, po after 7 days (reference value: 30.42 +/- 1.25 g ); set-up: dose 5 mg/kg, route oral
Mus musculus [11] = assay: Toxicity in Swiss albino mouse assessed as change in serum hemoglobin level at 1000 mg/kg, po after 7 days (reference value: 13.38 +/- 1 g/dL ); set-up: dose 1000 mg/kg, route oral
Mus musculus [12] = assay: Toxicity in Swiss albino mouse assessed as body weight change at 300 mg/kg, po after 7 days (reference value: 30.42 +/- 1.25 g ); set-up: dose 300 mg/kg, route oral
Mus musculus [13] = assay: Toxicity in Swiss albino mouse assessed as change in ALKP activity at 50 mg/kg, po after 7 days (reference value: 83.29 +/- 9.77 U/L ); set-up: dose 50 mg/kg, route oral
Mus musculus [14] = assay: Toxicity in Swiss albino mouse assessed as change in serum hemoglobin level at 50 mg/kg, po after 7 days (reference value: 13.38 +/- 1 g/dL ); set-up: dose 50 mg/kg, route oral

COc1cc(C2/C(=C/c3ccc4c(c3)OCO4)C(=O)c3cc(OC)c(OC)c(OC)c32)cc(OC)c1OC (centres undefined)
Activity (Mus musculus [1]): 90.11 U/L | Activity (Mus musculus [2]): Non-toxic | Activity (Mus musculus [3]): 9.16 U/L | Activity (Mus musculus [4]): 19.38 U/L | Activity (Mus musculus [5]): 19.68 U/L | Activity (Mus musculus [6]): Non-toxic | Activity (Mus musculus [7]): 109.42 mg/dL | Activity (Mus musculus [8]): 9.77 U/L | Activity (Mus musculus [9]): 117.57 mg/dL | Activity (Mus musculus [10]): 30.38 g | Activity (Mus musculus [11]): 12.21 g/dL | Activity (Mus musculus [12]): 29.35 g | Activity (Mus musculus [13]): 94.24 U/L | Activity (Mus musculus [14]): 12.93 g/dL
